US12037419B2 (The Feinstein Institutes for Medical Research, priority 2016, dated 2024)

What was measured:
[1] = target: T1, sRAGE-C1q-HMGB1 complex; test: RAGE-C1q-HMGB1 trimolecular complex formation (SPR and C1q-coated beads); assay type: binding, human; details: sRAGE immobilized, C1q 200 nM, HMGB1 500 nM, either order
T1 construct: soluble RAGE (sRAGE) was immobilized on the sensor chip; C1q purified from pooled normal human sera; purchased R&D Systems (hrRAGE); Complement Technology (C1q)
Protocol: The dissociation time was set for 1 minute.
Trimolecular complex assay: Biotinylated-C1q (20 μg/ml) was precoated to SpeedBeads™ (Streptavidin-conjugated microbeads, Thermo Scientific). Beads were saturated with HMGB1, then incubated with RAGE.

[2] = system: human monocytes; test: HMGB1-induced monocyte activation (cytokine mRNA by q-PCR, protein by ELISA/MSD); assay type: cell-based
Protocol: (§1) Monocyte isolation and stimulation: Human PBMCs were obtained following institutional guidelines of the Feinstein Institute for Medical Research (Feinstein) and isolated from blood of healthy donors by density centrifugation (New York Blood Bank). Monocytes were negatively enriched using a human monocyte enrichment kit (Stem Cell Technology). Purity of monocytes (≥90% CD11b+CD14+LAIR-1+) was determined by flow cytometry. […] Splenic murine monocytes from wild type mice, RAGE deficient or LAIR-1 conditional knockout mice were isolated using EasySep mouse monocyte enrichment kit (Stem Cell Technology). C57BL/6 mice, Lysozyme2-Cre transgenic mice were purchased from Jackson Laboratory. Myeloid specific LAIR-1 conditional knockout mice (Lysozyme2-Cre×LAIR fl/fl) were bred and maintained in our facility (Feinstein) under specific pathogen-free conditions. RAGE deficient mice (Department of Medicine, Karolinska Institute Stockholm, Sweden) were maintained at Feinstein. Eight-to ten weeks old male mice were used for experiments. All animal procedures were approved by the Feinstein Institutional Animal Care and Use Committee.
RT-PCR analysis and primers: Total RNA was extracted from cells (1-2×10^6 cells per sample) with an RNeasy kit (Qiagen, Venlo, Limburg, Netherlands) and cDNA was generated using an iScript cDNA synthesis kit (Bio-Rad laboratories). Real Time-PCR was performed on a Light Cycler 480 II (Roche) using Light Cycler 480 master mix with primers (Applied Biosystems) for IFNα1 (Hs00256882), IFNα7 (mm02525960), MX1 (Hs00182073, mm01217998), IL-6 (Hs00985639, mm99999064), TNFα (Hs00174128, mm00443258), IL-12a (Hs00168405), Mer (Hs01031973), PDL-1 (Hs01125301), IL-10 (Hs00961622), CD163 (Hs00174705), HPRT1 (Hs99999909, mm01545399) and Polr2a (Hs00172187). The genes of interest were normalized to the expression of house keeping genes and were compared to a control condition with no treatment. The relative induction was calculated by 2-ΔΔCt.
Transfection: For RNA interference assays, human monocytes were transfected using an Amaxa Nucleofector kit (Lonza) with a greater than 40% transfection efficiency. siRNAs were obtained from Qiagen. The target sequence of human LAIR1-11 is […] (SEQ ID NO:9). The efficiency of knockdown was determined by flow cytometry and q-PCR.
Cytokine analysis: Cytokine levels were measured using a Human Proinflammatory 7-plex assay following the manufacturer's protocols (Meso Scale Discovery (MSD). MSD plates were analyzed on the MS2400 imager (MSD). All standards and samples were run in duplicates.

[3] = system: human monocytes; test: CpG- or LPS-induced cytokine transcription in monocytes; assay type: cell-based
Protocol: as §1, with “All animal procedures were approved by the Feinstein Institutional Animal Care and Use Committee.” left out
RT-PCR analysis and primers: Total RNA was extracted from cells (1-2×10^6 cells per sample) with an RNeasy kit (Qiagen, Venlo, Limburg, Netherlands) and cDNA was generated using an iScript cDNA synthesis kit (Bio-Rad laboratories). […] The relative induction was calculated by 2-ΔΔCt.

[4] = target: T2, RAGE and LAIR-1 (Homo sapiens, UniProt Q15109+Q6GTX8); test: Proximity ligation assay (PLA) for colocalization of RAGE and LAIR-1 on monocytes; assay type: cell-based
T2 construct: endogenous in cells; host or cells: primary human monocytes from blood of healthy donors
Protocol: Cells were then incubated overnight with a primary antibody pair directed to rabbit anti-RAGE (ab3611, Abcam) and to mouse anti-LAIR-1 (BD Bioscience), respectively. The cells were incubated with corresponding PLA probes conjugated to oligonucleotides (mouse MINUS and rabbit PLUS), then followed by ligation and rolling circle amplification in close proximity. Images were acquired using an AxioImage Z1 (Zeiss) apotome enabled (Zeiss) Fluorescent-intensity analysis of the images was performed using Zen2 (Zeiss).
Immunofluorescence Microscopy: In situ proximal ligation assay was performed according to manufacturer's protocol (Duolink, Sigma). Following stimulation, human monocytes were washed three times with ice-cold PBS and were fixed with 4% (wt/vol) PFA for 1 hour at room temperature, seeded (2×10^5 cells) on slides using cytospin (Shandon), permeablized with chilled MeOH for 4 min and with PBS/0.1% (vol/vol) Triton X-100 and blocked for 1 h at room temperature. Cells were then incubated overnight with a primary antibody pair directed to rabbit anti-RAGE (ab3611, Abcam) and to mouse anti-LAIR-1 (BD Bioscience), respectively. The cells were incubated with corresponding PLA probes conjugated to oligonucleotides (mouse MINUS and rabbit PLUS), then followed by ligation and rolling circle amplification in close proximity. […] Quantification was performed using Zen2 (Zeiss). […]

[5] = target: T3, LAIR-1 and RAGE in lipid rafts (Homo sapiens, UniProt Q15109+Q6GTX8); test: Lipid raft fractionation and Western blot; assay type: cell-based; details: in the presence of HMGB1 and C1q
T3 construct: endogenous in cells; host or cells: monocytes
Protocol: Lipid raft fractionation: Lipid rafts were prepared as described (50). Monocytes (5×10^6) were lysed in 1 ml THE buffer (25 mM Tris, 150 mM NaCl, 5 mM EDTA) containing 1% Triton and incubated for 30 min on ice. Lysates were homogenized with 10 strokes of a dounce homogenizer, mixed with 2 ml of 80% sucrose in TNE buffer, and transferred to a centrifuge tube. Samples were overlaid with 4 ml of 30% sucrose and 2 ml of 5% sucrose in TNE. After centrifugation for 16 h at 180,000 g in a Beckman Coulter SW41Ti rotor, 0.8 ml fractions were collected from the top of the gradient. Each fraction was subjected to slot blot analysis to identify GM1-enriched rafts fraction using FITC-conjugated cholera toxin-B subunit (Sigma). Lipid raft fractions were precipitated with TCA and washed with 70% EtOH, then subjected to slot blot analysis or Western blot.

[6] = system: human monocytes; test: Monocyte to DC differentiation with GM-CSF and IL-4 (flow cytometry); assay type: cell-based; details: compared with C1q alone
[7] = C1q 25 μg/ml, HMGB1 3 μg/ml, 6 h

T2 sequence (Q15109 23-404): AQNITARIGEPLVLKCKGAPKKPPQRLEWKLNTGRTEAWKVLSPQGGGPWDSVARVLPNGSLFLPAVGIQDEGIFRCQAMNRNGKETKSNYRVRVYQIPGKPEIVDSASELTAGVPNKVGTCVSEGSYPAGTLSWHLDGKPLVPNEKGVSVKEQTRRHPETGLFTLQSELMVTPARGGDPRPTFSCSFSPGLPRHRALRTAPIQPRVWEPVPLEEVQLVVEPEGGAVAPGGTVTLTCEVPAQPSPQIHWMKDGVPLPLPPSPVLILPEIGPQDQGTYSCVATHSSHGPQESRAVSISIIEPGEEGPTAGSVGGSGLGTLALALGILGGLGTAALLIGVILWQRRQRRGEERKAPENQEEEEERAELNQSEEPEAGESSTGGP
T2 sequence (Q6GTX8 22-287): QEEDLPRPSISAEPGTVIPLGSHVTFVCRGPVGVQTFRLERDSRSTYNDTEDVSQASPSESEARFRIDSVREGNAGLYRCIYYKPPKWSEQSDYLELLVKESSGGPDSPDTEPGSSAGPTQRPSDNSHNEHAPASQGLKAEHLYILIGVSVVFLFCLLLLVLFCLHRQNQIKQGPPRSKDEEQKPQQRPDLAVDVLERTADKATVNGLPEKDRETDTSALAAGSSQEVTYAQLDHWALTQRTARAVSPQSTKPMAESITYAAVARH
T3 sequence (Q6GTX8 22-287): as above
T3 sequence (Q15109 23-404): as the sequence (Q15109 23-404) above
T1 sequence (Q15109 23-342 limits assumed): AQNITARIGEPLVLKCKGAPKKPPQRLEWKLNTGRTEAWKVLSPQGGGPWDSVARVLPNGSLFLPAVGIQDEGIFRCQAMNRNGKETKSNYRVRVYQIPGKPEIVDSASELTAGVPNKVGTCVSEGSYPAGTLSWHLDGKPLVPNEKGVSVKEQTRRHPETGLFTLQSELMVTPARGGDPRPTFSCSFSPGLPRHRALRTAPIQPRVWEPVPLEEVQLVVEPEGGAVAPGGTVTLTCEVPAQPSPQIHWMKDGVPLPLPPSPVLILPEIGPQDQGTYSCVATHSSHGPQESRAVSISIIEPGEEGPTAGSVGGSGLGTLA
T1 sequence (P09429 whole entry, further chain): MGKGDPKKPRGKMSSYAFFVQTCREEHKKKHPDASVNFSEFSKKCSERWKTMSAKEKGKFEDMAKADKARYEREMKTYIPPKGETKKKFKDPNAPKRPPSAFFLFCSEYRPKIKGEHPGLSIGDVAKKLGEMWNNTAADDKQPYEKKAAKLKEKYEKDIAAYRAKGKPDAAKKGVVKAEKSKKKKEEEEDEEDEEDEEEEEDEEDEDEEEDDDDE
T1 sequence (P02745 23-245, further chain): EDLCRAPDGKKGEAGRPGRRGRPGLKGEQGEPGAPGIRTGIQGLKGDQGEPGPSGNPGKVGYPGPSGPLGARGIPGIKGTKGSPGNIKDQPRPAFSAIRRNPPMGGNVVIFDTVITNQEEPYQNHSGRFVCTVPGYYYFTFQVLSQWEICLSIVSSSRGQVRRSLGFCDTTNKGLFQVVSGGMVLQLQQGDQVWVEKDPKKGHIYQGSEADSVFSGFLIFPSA
T1 sequence (P02746 28-253, further chain): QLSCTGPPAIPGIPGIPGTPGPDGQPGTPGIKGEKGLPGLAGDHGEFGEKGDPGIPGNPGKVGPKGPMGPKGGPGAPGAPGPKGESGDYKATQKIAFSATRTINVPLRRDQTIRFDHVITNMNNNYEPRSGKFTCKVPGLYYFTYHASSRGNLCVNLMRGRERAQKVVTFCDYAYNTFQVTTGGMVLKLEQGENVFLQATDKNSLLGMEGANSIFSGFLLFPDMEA
T1 sequence (P02747 29-245, further chain): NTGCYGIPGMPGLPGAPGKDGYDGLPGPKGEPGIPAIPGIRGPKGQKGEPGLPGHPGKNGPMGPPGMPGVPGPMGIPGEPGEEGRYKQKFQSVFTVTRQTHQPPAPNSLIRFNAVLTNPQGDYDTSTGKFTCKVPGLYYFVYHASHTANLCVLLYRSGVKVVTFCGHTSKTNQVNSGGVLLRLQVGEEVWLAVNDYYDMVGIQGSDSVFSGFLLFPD

C1q: C1q purified from pooled normal human sera, obtained from Complement Technology
trimolecular complex formation with HMGB1 and sRAGE [1]: formed a trimolecular complex | HMGB1-induced IFN, IL-6 and TNFα in adherent cell fraction of PBMCs [2, 7]: inhibited this HMGB1-mediated activation | HMGB1-mediated cytokine induction in monocytes treated with LAIR-1-specific siRNA [2, 7]: no effect | HMGB1-induced monocyte activation in the presence of soluble decoy receptor LAIR-2 ([2]; C1q 25 μg/ml, LAIR-2 20 μg/ml, HMGB1 3 μg/ml, 6 h): failed to inhibit monocyte activation | transcription of cytokine genes in the absence of HMGB1 ([2]; C1q alone, serum free medium): did not alter transcription | monocyte activation by HMGB1, C1q levels commonly present in SLE patients ([2]; C1q ˜25-50 μg/ml): less inhibitory | HMGB1-mediated cytokine transcription and protein induction ([2]; HMGB1 3 μg/ml, various C1q concentrations, serum free medium, 6 h mRNA, 24 h protein): counteracted the HMGB1-mediated cytokine transcription and protein induction in a dose-dependent manner | inhibitory effect of C1q at increased HMGB1 level ([2]; HMGB1 10 μg ml-1): abrogated the inhibitory effect of C1q | monocyte activation by HMGB1, physiologic levels of C1q ([2]; physiologic C1q levels): effectively blocked monocyte activation | CpG-mediated induction of pro-inflammatory cytokines and IFN inducible genes ([3]; CpG 2216): inhibits CpG-mediated induction of pro-inflammatory cytokines | LPS-induced cytokine transcription ([3]; LPS): no effect on LPS-induced cytokine transcription | RAGE-LAIR-1 colocalization (PLA fluorescence) ([4]; C1q with or without HMGB1): only detected in the presence of C1q | RAGE-LAIR-1 cross-linking with C1q co-incubated with LAIR-2 ([4]; data not shown): negated the cross-linking of RAGE and LAIR-1 | localization of LAIR-1 and RAGE in lipid rafts [5]: LAIR-1 migrated to lipid rafts where LAIR-1 colocalized with RAGE | expression of CD14 and LAIR-1 after GM-CSF and IL-4, pre-exposure to both HMGB1 and C1q [6]: significantly higher
